Measured values reported in article PMC10141844 (Archives of Virology, 2023).
Where “and” joins values, the source holds several entries; their conditions need not be identical. Identical values can stand only once. Entries after “also recorded” stand apart in the source; their conditions may differ.

How the values were obtained:
[1] = Cell viability / MTT assay; assay type: cell-based, human; details: human, S10-3 human hepatoma cells
[2] = test system: S10-3 human hepatoma cells; test: Cell viability / MTT assay; assay type: cell-based; details: highest concentration tolerated by S10-3 cells, MTT, 120 h
[3] = test system: HEV-1; test: HEV-1 subgenomic replicon Renilla luciferase assay in S10-3 cells; assay type: cell-based, Hepatitis E virus; details: for HEV-1 inhibition (%): subgenomic replicon, at MNTD: RBV 3.12 µM, CQ 0.06 µM, HCQ 0.78 µM, ART 23.43 µM, 48 h
[4] = target: T1, HEV-1 helicase (Hepatitis E virus genotype 1, UniProt P33424); test: Colorimetric ATPase assay of recombinant helicase; assay type: biochemical
T1 sequence (P33424 960-1204): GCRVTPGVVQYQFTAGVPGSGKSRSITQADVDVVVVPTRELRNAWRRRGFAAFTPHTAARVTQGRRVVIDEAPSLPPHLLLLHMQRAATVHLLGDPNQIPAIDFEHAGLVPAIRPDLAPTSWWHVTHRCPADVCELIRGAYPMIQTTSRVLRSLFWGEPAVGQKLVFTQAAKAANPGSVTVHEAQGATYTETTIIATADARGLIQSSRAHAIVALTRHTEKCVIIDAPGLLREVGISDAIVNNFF

[5] = oral administration; cited from earlier work
[6] = in silico toxicity studies, cited from earlier work
[7] = test system: HEV-1; test: ORF2 protein expression by immunofluorescence assay and western blot; assay type: cell-based, Hepatitis E virus; details: IFA and western blot, 72 h and 96 h post-transfection, RBV 3.1 µM, ART 23.4 µM
[8] = target: T2, HEV-1 RdRp (Hepatitis E virus genotype 1, UniProt P33424); test: Colorimetric RdRp polymerase assay; assay type: biochemical
T2 sequence (P33424 1199-1693 limits assumed): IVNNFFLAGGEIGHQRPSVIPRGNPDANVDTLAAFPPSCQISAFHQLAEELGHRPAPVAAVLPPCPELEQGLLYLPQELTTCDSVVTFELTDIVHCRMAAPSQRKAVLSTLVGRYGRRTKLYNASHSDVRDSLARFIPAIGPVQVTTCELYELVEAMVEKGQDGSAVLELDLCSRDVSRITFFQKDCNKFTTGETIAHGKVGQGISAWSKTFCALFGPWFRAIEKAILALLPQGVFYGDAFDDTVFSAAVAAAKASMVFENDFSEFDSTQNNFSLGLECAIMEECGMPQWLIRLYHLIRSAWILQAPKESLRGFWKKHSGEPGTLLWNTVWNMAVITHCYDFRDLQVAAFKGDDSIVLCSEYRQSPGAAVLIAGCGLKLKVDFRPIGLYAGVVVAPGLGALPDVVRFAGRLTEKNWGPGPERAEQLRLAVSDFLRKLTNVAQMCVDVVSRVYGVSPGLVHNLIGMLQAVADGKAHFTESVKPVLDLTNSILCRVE

## CCN(CC)CCCC(C)Nc1ccnc2cc(Cl)ccc12 (stereo not shown) [CQ, chloroquine]
[1]
  CC50 at 120 h: 4.77 ± 0.74 µM
[2]
  MNTD, maximum nontoxic dose: 0.06 µM
[3]
  HEV-1 inhibition (%): 23 ± 2%

## C[C@H]1[C@H](OC(=O)CCC(=O)O)O[C@@H]2O[C@@]3(C)CC[C@H]4[C@H](C)CC[C@@H]1[C@@]24OO3 [ART, artesunate]
[1]
  CC50 at 120 h: 189 ± 14.1 µM
[2]
  MNTD, maximum nontoxic dose: 23.43 µM
[4]
  Reversibility of helicase inhibition: reversible
[4]; 4.8 µM ART, 100 µM ATP
  Helicase ATPase activity inhibition (%): 23%
[4]; 78 µM ART, 100 µM ATP
  Helicase ATPase activity inhibition (%): 55% and ~ 55%
[4]; ATP pretreatment assay
  Mode of inhibition of helicase ATPase: competitive inhibitor
[4]; enzyme pretreated with ART
  Mode of inhibition of helicase ATPase: noncompetitive inhibitor
[4]; helicase pre-incubated with 19.5 µM ART 30 min, 50 µM ATP
  ATPase activity (%): 62%
[4]; helicase pre-incubated with 19.5 µM ART 30 min, 100 µM ATP
  ATPase activity (%): 75%
[4]; helicase pre-incubated with ATP 30 min before 19.5 µM ART, 50 µM ATP
  ATPase activity (%): ~ 79%
[4]; helicase pre-incubated with ATP 30 min before 19.5 µM ART, 100 µM ATP
  ATPase activity (%): 86%
[5]
  Elimination half-life: 21 to 72 min
  Tmax: less than one hour
[6]; if used in high doses for a long time
  Mutagenic, tumorigenic and hepatotoxic potential: moderately mutagenic, tumorigenic, and hepatotoxic
[6]
  Risk of reproductive or developmental toxicity: no risk
[7]
  ORF2 protein levels: decreased ORF2 levels; also recorded: reduced ORF2 expression significantly
[8]; 4.8 µM ART
  RdRp polymerase activity inhibition (%): 38%
[8]; 78 µM ART
  RdRp polymerase activity inhibition (%): 40%
[3]; CC50/EC50
  TI for HEV-1, therapeutic index (CC50/EC50): 9.68
[3]
  HEV-1 inhibition (%): > 50%

## NC(=O)c1ncn([C@@H]2O[C@H](CO[P@@](=O)(O)O[P@](=O)(O)OP(=O)(O)O)[C@@H](O)[C@H]2O)n1 [RTP, Ribavirin triphosphate]
[1]
  CC50 at 120 h: 169 ± 1.6 µM
[2]
  MNTD, maximum nontoxic dose: 7.8 µM
[4]; 3.5 µM RTP, 100 µM ATP
  Helicase ATPase activity inhibition (%): 22%
[8]; read-out: RdRp polymerase activity inhibition (%), 28 µM RTP (maximum)
  inhibition at 28 µM: 28%

## NC(=O)c1ncn([C@@H]2O[C@H](CO)[C@@H](O)[C@H]2O)n1 [RBV, ribavirin]
[1]
  CC50 at 120 h: 39 ± 5.9 µM
[2]
  MNTD, maximum nontoxic dose: 3.12 µM
[7]
  ORF2 protein levels: decreased ORF2 levels; also recorded: reduced ORF2 expression significantly

## CCN(CCO)CCCC(C)Nc1ccnc2cc(Cl)ccc12 (stereo not shown) [HCQ, hydroxychloroquine]
[2]
  MNTD, maximum nontoxic dose: 0.78 µM
